Activity calls are given as the source filed them.
What was measured:
[1] = molecular target: Female germline-specific tumor suppressor gld-1 (Caenorhabditis elegans, UniProt Q17339); experiment: inhibitors of GLD-1 binding to TGE RNA, dose response, biochemical, fluorescence polarization, C. elegans (AID 2802);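 further: fluorescence polarization of labeled TGE RNA bound by purified gld-1 protein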
[2] = molecular target: Protein Rev (Human immunodeficiency virus type 1 group M subtype B (isolate HXB2)(HIV-1), UniProt P04618); experiment: inhibitors of Rev binding to RRE RNA, dose response, biochemical, fluorescence polarization, HIV-1 (AID 434976); parameters: species or system Human immunodeficiency virus 1
[3] = molecular target: Eukaryotic translation initiation factor 4E (Mus musculus, UniProt P63073); experiment: eIF4E–eIF4G protein interaction inhibitors, dose response, biochemical, TR-FRET (AID 855); type: functional;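 further: potency for disrupting eIF4E binding to eIF4GI seen as loss of FRET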
[4] = microbe, parasite or virus in culture; type: functional; settings: Mycobacterium tuberculosis
[5] = molecular target: Genome polyprotein (Hepatitis C virus, UniProt Q2Q167); experiment: HCV core protein dimerization inhibitors, dose response, biochemical, TR-FRET (AID 2159); parameters: species or system Hepacivirus hominis;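 further: blocks dimerization of HCV core protein measured by TR-FRET between tagged core106 pairs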
[6] = molecular target: G-protein coupled receptor 55 (Homo sapiens, UniProt Q9Y2T6); experiment: GPR55 agonists via beta-arrestin recruitment, primary screen, imaging, U2OS cells, beta-arrestin-GFP redistribution (AID 1961); type: functional
[7] = molecular target: Melanin-concentrating hormone receptor 1 (Homo sapiens, UniProt Q99705); experiment: Late-stage fluorescence-based counterscreen for antagonists of the G-protein coupled receptor 7 (GPR7): cell-based dose response assay to identify antagonists of the melanin-concentrating hormone receptor 1 (MCHR1). [Related pubchem assays (depositor defined):AID1861, AID1880, AID1952, AID2148, AID2251, AID2257, AID485339]; type: functional;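 further: stimulated with 30 nM MCH peptide agonist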
[8] = molecular target: T1, Neuropeptides B/W receptor type 1 (Homo sapiens, UniProt P48145); experiment: GPR7 antagonist potency, late-stage follow-up, cell-based, fluorescence, dose response (AID 463251); type: functional
T1 sequence (P48145 whole entry): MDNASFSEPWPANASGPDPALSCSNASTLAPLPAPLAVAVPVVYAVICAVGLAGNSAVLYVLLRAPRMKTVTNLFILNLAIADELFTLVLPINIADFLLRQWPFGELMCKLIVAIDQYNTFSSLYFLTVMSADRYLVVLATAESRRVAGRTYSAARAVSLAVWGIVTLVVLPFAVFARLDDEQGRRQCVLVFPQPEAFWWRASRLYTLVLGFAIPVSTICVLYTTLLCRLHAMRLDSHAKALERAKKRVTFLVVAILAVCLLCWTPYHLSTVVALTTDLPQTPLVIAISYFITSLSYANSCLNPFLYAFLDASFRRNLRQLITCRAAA

[9] = molecular target: Polyadenylate-binding protein 1 (Homo sapiens, UniProt P11940); experiment: PABP inhibition in translation initiation, SAR follow-up (AID 435018); type: functional
[10] = molecular target: Eukaryotic translation initiation factor 4H (Homo sapiens, UniProt Q15056); experiment: eIF4H inhibition in translation initiation, SAR follow-up (AID 435011); type: functional
[11] = molecular target: Phosphoethanolamine/phosphocholine phosphatase (Homo sapiens, UniProt Q8TCT1); experiment: SAR assay for compounds that inhibit PHOSPHO1. [Related pubchem assays (depositor defined):AID1545, AID1565, AID1574]
[12] = molecular target: Phosphomannomutase 2 (Homo sapiens, UniProt O15305); experiment: Counter screen SAR assay for PMM2 inhibitors via a fluorescence intensity assay. [Related pubchem assays (depositor defined):AID1545, AID1574]
[13] = molecular target: T2, Mannose-6-phosphate isomerase (Homo sapiens, UniProt P34949); experiment: PMI enzyme inhibitors, confirmation, biochemical, fluorescence intensity (AID 1535)
T2 sequence (P34949 whole entry): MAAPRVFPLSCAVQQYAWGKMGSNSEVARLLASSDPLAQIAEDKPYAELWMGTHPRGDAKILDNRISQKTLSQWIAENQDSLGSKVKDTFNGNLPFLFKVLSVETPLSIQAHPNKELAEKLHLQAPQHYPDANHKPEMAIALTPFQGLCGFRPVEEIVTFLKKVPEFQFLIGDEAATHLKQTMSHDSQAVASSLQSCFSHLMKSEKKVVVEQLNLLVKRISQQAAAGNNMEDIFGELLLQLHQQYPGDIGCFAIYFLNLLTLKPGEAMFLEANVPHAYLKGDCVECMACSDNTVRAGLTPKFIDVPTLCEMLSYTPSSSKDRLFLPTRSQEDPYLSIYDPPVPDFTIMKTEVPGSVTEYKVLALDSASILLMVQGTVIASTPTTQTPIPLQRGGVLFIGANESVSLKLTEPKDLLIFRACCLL

[14] = system: Vero; experiment: West Nile virus CPE inhibition, SAR follow-up, cell-based, synthesized analogs (AID 2238); type: functional; settings: Chlorocebus sabaeus
[15] = system: Vero; experiment: cytotoxicity of synthesized analogs in Vero 76, SAR follow-up, cytotoxicity control for West Nile virus antiviral project, Vero 76 cells (AID 2414); type: functional; settings: Chlorocebus sabaeus
[16] = system: Vero; experiment: cytotoxicity of synthesized analogs in Vero cells, SAR follow-up, cytotoxicity control for West Nile virus antiviral project, cell-based, set II (AID 2402); type: functional; settings: Chlorocebus sabaeus
[17] = system: Vero; experiment: Vero E6 cell cytotoxicity, SAR follow-up, cytotoxicity control for West Nile virus antiviral project, synthesized analogs (AID 2244); type: functional; settings: Chlorocebus sabaeus
[18] = Shn3 3'UTR reporter inhibitors, dose response, cell-based, Clone20 osteoblasts, firefly luciferase, cherry-picked (AID 624132); type: functional;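 further: firefly luciferase luminescence from reporter carrying the Shn3 3'UTR in osteoblasts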
[19] = HepG2 cell cytotoxicity, dose response, cytotoxicity control for Shn3 inhibitor project, CellTiter-Glo, cherry-picked (AID 624134); type: functional, cell-based
[20] = control 3'UTR Renilla luciferase suppression, dose response, counter-screen for Shn3 inhibitor project, cell-based, Clone20-Shn3RL, cherry-picked (AID 624133); type: functional
[21] = molecular target: Beta-galactosidase (Escherichia coli, UniProt Q8VNN2); experiment: beta-galactosidase enzyme inhibitors and activators, dose response, artefact control for CCR6 antagonist project, biochemical, E. coli enzyme, set 3 (AID 504712); type: functional
[22] = molecular target: Intestinal-type alkaline phosphatase (Homo sapiens, UniProt P09923); experiment: Dose Response confirmation of uHTS hits from a small molecule inhibitors of human intestinal alkaline phosphatase via a luminescent assay. [Related pubchem assays (depositor defined):AID2544, AID2574]; type: functional
[23] = Late stage results from the probe development effort to identify inhibitors of the protein methylesterase PME-1: Luminescence-based counterscreen assay to identify cytotoxic compounds.; type: functional
[24] = molecular target: Acylamino-acid-releasing enzyme (Homo sapiens, UniProt P13798); experiment: PME-1 inhibitor potency by in-gel ABPP, dose response, selectivity assay for PME-1 inhibitor project, cell lysate, mouse brain cytosol, FP-rhodamine, panel member APEH Assay Panel member description: Inhibition of N-acylaminoacyl-peptide hydrolase (APEH) (anti-target) (AID 2366)
[25] = molecular target: T3, Replicative DNA helicase DnaB (Mycobacterium tuberculosis, UniProt P9WMR3); experiment: DnaB intein splicing inhibitors, dose response, biochemical, cell-free fluorescence (AID 449749); type: functional
T3 sequence (P9WMR3 whole entry): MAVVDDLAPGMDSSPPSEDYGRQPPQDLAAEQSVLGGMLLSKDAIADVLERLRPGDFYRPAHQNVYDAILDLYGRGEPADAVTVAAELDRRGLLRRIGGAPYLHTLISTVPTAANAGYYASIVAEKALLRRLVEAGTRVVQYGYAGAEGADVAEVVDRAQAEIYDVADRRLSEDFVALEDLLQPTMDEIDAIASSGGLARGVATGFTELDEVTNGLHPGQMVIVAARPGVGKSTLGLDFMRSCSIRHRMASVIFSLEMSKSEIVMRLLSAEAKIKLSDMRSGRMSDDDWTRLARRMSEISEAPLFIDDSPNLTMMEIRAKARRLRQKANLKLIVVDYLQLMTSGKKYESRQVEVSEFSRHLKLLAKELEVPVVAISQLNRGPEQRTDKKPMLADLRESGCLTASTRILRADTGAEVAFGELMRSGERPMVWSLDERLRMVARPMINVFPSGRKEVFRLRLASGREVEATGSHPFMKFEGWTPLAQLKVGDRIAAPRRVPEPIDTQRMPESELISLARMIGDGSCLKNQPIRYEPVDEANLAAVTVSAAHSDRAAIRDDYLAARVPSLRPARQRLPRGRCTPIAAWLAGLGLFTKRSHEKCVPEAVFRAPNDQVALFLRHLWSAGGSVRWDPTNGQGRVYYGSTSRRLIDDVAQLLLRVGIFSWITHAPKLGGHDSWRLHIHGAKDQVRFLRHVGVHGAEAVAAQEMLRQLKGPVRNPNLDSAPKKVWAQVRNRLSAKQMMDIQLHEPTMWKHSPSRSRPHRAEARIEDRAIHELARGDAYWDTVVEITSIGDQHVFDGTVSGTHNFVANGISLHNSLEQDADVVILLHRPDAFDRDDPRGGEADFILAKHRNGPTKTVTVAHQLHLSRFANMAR

[26] = growth suppression of PTEN-null colon cells, dose response, cell-based, HCT116 PTEN knockout (AID 1047); type: functional;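 further: HCT116 colon tumor cells with PTEN knocked out; cells exposed to compound for 60 hours before readout; potency for loss of cell viability measured by luminescence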
[27] = system: BJ; experiment: cytotoxicity toward Ras-transformed BJeLR fibroblasts, dose response, cell-based, alamar blue fluorescence, cherrypicked samples (AID 2631); type: functional; settings: Homo sapiens;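 further: confirmatory dose-response assay in RAS-dependent BJ fibroblasts engineered with TERT, LT and ST, with cytotoxicity read by fluorescence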
[28] = molecular target: T4, Protein RecA (Mycobacterium tuberculosis, UniProt P9WHJ3); experiment: Fluorescence Cell-Free Homogeneous Dose Retest to Identify Inhibitors of RecA-Intein Splicing Activity. [Related pubchem assays (depositor defined):AID2097, AID2223, AID489010, AID492950]; type: functional
T4 sequence (P9WHJ3 whole entry): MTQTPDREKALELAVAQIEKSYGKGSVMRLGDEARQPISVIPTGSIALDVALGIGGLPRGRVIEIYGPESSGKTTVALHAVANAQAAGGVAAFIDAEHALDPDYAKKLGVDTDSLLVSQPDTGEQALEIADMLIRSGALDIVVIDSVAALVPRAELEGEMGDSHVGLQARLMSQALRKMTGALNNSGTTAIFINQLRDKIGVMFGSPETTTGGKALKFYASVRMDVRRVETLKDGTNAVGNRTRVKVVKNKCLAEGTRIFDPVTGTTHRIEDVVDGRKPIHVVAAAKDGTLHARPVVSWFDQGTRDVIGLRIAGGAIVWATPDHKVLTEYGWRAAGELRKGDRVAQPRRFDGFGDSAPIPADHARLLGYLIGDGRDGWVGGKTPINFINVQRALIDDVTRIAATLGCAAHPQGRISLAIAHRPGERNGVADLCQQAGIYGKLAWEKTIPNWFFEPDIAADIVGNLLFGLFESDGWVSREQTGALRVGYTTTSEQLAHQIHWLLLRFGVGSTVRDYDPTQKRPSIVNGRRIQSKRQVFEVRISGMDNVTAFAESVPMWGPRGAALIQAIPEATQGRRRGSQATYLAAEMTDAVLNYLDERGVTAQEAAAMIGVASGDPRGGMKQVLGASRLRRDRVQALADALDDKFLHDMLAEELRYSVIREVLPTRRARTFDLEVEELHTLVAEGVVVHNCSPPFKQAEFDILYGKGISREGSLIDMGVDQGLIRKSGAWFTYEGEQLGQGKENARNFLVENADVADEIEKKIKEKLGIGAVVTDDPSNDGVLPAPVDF

[29] = system: INS1; experiment: beta cell apoptosis inhibitors, cytokine rescue, dose response, luminescence, retest (AID 449756); type: functional, cell-based; settings: Rattus norvegicus;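 further: cell death triggered by IL-1 beta plus TNF-alpha plus IFN-gamma mixture; protective hits raise ATP signal compared with cytokine alone wells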
[30] = molecular target: G-protein coupled receptor 35 (Homo sapiens, UniProt Q9HC97); experiment: GPR35 antagonists blocking zaprinast-driven arrestin recruitment, primary screen, imaging, U2OS, beta-arrestin-GFP, zaprinast agonist (AID 2058); type: functional;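 further: antagonist potency meaning inhibition of agonist-induced arrestin redistribution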
[31] = growth suppression of beta-catenin-knockout colon cells, dose response, cell-based, HCT116, human colon tumor (AID 1045); type: functional;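 further: HCT116 colon tumor cells with beta catenin knocked out; cells exposed to compound for 60 hours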
[32] = molecular target: Paired box protein Pax-8 (Homo sapiens, UniProt Q06710); experiment: inhibitors of PAX8-driven TPO luciferase reporter, dose response, RMG-I cells, cherry-pick (AID 687027); type: functional, cell-based;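 further: luciferase reporter driven by Pax8 target thyroperoxidase promoter measured by SteadyGlo luminescence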

Protein Rev, sequence (P04618 whole entry): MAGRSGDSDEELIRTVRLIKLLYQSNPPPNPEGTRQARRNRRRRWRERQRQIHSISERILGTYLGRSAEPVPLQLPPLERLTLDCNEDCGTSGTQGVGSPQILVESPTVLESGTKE
Beta-galactosidase, sequence (Q8VNN2 whole entry): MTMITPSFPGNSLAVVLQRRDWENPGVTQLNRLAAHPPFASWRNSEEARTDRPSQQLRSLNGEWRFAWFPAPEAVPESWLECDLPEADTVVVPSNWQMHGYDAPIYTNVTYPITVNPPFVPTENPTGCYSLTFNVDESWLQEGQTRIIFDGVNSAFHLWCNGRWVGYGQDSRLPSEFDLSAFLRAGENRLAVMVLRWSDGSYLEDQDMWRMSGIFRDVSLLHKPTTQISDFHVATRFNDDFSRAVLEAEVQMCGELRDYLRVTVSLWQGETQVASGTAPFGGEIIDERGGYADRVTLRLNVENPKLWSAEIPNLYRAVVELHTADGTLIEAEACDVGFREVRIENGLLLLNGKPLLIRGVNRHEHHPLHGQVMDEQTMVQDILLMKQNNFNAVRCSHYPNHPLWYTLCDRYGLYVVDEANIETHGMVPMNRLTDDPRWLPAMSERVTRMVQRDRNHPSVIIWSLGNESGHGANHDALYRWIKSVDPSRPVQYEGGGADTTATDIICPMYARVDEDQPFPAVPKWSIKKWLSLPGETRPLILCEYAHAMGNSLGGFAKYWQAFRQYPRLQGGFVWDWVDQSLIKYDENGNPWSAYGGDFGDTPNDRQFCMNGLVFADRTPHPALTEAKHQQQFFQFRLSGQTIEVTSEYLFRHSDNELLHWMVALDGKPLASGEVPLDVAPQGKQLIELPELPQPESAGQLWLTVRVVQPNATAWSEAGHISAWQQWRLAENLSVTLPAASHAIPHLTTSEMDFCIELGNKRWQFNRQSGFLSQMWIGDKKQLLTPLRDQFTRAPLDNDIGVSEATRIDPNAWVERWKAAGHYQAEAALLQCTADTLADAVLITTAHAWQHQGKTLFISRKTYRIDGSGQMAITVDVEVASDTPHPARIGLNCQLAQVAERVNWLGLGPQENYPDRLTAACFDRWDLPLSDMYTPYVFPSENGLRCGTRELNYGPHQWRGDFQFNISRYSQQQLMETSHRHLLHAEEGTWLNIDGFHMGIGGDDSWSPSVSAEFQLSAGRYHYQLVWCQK
Phosphoethanolamine/phosphocholine phosphatase, sequence (Q8TCT1 whole entry): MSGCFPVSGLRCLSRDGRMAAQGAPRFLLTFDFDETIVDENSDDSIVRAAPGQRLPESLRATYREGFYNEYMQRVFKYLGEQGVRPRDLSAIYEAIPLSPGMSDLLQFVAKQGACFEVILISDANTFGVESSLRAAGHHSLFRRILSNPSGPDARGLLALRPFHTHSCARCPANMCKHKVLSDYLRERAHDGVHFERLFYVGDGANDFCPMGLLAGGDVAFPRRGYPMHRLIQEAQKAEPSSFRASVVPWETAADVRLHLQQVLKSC
Phosphomannomutase 2, sequence (O15305 whole entry): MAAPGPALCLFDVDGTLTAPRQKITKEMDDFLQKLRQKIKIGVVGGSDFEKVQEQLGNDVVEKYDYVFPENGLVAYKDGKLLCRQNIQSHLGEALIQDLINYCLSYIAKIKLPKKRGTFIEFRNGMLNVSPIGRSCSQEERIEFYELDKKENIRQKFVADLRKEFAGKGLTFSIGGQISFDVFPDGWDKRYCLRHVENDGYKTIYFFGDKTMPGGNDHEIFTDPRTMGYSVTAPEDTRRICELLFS
Intestinal-type alkaline phosphatase, sequence (P09923 whole entry): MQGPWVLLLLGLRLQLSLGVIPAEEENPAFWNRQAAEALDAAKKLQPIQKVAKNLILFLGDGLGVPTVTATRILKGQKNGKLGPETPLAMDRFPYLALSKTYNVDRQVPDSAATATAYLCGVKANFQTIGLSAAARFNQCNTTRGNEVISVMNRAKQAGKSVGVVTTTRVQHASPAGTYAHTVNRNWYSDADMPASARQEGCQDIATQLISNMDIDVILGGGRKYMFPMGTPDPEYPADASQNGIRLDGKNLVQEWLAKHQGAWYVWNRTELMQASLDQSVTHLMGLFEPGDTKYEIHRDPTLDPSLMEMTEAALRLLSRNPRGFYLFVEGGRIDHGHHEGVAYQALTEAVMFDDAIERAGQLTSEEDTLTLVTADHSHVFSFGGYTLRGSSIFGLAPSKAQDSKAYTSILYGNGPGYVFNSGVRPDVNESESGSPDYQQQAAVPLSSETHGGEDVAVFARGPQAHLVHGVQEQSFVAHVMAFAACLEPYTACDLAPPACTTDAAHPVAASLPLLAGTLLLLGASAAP
Eukaryotic translation initiation factor 4E, sequence (P63073 whole entry): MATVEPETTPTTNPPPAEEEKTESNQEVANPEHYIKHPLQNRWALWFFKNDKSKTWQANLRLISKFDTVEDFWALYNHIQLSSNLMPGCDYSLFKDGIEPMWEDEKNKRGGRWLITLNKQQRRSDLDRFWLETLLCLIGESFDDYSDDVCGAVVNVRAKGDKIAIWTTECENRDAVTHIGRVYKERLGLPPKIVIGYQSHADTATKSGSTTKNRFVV
G-protein coupled receptor 55, sequence (Q9Y2T6 whole entry): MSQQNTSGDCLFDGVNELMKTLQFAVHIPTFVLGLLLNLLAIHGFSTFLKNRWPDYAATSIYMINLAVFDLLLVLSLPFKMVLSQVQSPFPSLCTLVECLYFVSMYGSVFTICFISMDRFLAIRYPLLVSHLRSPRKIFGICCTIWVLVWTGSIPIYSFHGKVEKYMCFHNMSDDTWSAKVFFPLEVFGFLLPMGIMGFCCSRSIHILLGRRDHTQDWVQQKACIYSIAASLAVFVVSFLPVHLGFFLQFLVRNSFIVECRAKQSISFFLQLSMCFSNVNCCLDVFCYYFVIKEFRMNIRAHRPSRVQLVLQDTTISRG
Polyadenylate-binding protein 1, sequence (P11940 whole entry): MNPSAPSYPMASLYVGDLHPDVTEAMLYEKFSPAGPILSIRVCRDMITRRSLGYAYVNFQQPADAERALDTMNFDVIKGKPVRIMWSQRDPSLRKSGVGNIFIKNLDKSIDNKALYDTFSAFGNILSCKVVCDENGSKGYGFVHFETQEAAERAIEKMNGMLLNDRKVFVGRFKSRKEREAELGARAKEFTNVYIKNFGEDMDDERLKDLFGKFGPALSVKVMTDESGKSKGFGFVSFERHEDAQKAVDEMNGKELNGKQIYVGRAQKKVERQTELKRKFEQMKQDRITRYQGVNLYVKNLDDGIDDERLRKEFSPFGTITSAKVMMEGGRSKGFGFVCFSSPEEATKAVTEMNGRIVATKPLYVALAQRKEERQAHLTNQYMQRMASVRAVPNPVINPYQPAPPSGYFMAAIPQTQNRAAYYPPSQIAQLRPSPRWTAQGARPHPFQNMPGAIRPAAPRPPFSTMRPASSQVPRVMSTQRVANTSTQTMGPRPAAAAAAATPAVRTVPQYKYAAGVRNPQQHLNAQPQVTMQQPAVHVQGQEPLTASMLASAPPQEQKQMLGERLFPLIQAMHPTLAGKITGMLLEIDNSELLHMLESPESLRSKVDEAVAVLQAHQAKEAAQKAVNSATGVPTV
G-protein coupled receptor 35, sequence (Q9HC97 whole entry): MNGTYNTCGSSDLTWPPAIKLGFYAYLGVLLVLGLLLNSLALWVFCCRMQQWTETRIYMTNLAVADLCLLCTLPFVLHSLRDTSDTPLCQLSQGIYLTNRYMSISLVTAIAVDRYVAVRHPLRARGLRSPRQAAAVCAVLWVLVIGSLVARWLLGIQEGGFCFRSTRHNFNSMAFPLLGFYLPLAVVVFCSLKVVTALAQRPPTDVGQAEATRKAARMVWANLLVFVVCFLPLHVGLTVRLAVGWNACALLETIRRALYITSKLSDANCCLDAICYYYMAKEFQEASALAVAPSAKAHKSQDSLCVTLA
Female germline-specific tumor suppressor gld-1, sequence (Q17339 whole entry): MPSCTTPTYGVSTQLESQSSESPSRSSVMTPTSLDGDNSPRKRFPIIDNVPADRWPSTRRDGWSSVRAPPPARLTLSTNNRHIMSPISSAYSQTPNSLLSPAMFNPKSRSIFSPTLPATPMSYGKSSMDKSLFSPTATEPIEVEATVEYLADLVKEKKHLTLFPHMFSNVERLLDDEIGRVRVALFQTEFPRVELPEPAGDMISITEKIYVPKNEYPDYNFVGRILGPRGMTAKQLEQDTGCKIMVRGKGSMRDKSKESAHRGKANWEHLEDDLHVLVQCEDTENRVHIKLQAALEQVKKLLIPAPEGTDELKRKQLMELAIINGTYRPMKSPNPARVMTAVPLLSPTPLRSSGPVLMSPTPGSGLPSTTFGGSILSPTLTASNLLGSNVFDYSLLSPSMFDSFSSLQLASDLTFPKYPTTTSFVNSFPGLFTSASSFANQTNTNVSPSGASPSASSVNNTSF
Genome polyprotein, sequence (Q2Q167 whole entry): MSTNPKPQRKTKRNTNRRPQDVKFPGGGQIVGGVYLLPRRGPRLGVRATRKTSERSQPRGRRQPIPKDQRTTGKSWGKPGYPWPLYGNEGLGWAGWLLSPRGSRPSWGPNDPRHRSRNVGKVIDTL
Melanin-concentrating hormone receptor 1, sequence (Q99705 whole entry): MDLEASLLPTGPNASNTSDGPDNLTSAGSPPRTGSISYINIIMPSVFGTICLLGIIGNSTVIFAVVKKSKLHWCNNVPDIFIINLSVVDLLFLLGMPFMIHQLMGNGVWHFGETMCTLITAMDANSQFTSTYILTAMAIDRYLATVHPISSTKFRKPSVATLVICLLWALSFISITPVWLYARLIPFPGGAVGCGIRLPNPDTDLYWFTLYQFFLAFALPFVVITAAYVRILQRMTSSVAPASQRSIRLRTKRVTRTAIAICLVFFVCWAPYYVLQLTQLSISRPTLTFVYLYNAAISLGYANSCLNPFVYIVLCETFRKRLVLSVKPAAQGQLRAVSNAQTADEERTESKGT

CC1=CC(=O)c2c(O)ccc(O)c2C1=O
IC50 [1]: 5.58 µM (active) | IC50 [2]: > 75.4 µM (not active) | IC50 [3]: 10.3 µM (active) | CC50 [4]: 12.9 µM (active) | IC50 [5]: > 49.8 µM (not active)

COC(=O)c1c(NC(=O)CN(c2ccccc2)S(C)(=O)=O)sc2c1CCCC2
EC50 [6]: 0.577 µM (active)

COc1ccc(Oc2c(Cl)cnn(-c3cccc(C#N)c3)c2=O)cc1
IC50 [7]: 14.2 µM (inactive) | IC50 [8]: 2.8 µM (active)

Cc1cc(Cl)ccc1NC(=O)C1CCN(C(=O)c2cccs2)CC1
IC50 [9]: > 100 µM (inactive) | IC50 [10]: > 100 µM (inactive)

O=c1c2ccccc2sn1-c1cc(S(=O)(=O)N2CCOCC2)ccc1N1CCCCC1
IC50 [11]: 39.4 µM (inactive) | IC50 [12]: > 100 µM (inactive) | IC50 [13]: 39.2 µM (active)

O=C(CSc1nc2ccccc2c(=O)n1-c1ccc(Cl)c(Cl)c1)Nc1ccc2c(c1)CCC2
IC50 [14]: 17.3 µM (active) | CC50 [15]: > 66.6 µM (active) | CC50 [16]: > 100 µM (active) | CC50 [17]: > 40 µM (active)

O=C1CC(Sc2nnc(-c3ccccc3O)o2)C(=O)N1c1ccccc1 (configuration not stated)
AC50 [18]: 12.9 µM (active) | AC50 [19]: 45.2 µM (active) | AC50 [20]: 17.8 µM (active) | IC50 [21]: > 66.6 µM (inactive)

O=C(NCCCN1CCOCC1)c1ccc2c(c1)N(Cc1ccc(Cl)cc1)C(=O)c1ccccc1[S+]2[O-] (configuration not stated)
IC50 [22]: > 100 µM (inactive)

N#C/C(=C\c1cccn1S(=O)(=O)c1cccc([N+](=O)[O-])c1)S(=O)(=O)c1ccc(F)cc1
CC50 [23]: 100 µM (active) | IC50 [24]: > 50 µM (inactive)

O=S(=O)(/C(=C/c1ccc(C(F)(F)F)cc1)c1nc2ccccc2[nH]1)c1ccccc1
AC50 [25]: 3.54 µM (active) | EC50 [26]: 1.89 µM (active) | EC50 [27]: 0.601 µM (active) | EC50 [28]: 5.85 µM (active) | AC50 [29]: 4.43 µM (active) | IC50 [30]: > 32 µM (inactive) | EC50 [31]: 1.68 µM (active) | AC50 [32]: 2.82 µM (active)
